# Measured values: ChEMBL document CHEMBL1146042, “Identification of metabolites of the tryptase inhibitor CRA-9249: observation of a metabolite derived from an unexpected hydroxylation pathway” (Bioorg Med Chem Lett, 2006)
# Columns and labels:
# Tryptase = Tryptase (Homo sapiens, UniProt Q9BZJ3+Q15661+Q9NRR2); test: Inhibition of mast cell tryptase; type: protein assay
# [1] = Stability in rat liver microsome after 3 hrs; type: ADME; conditions: liver microsomes, read-out: Stability
# [2] = Stability in human liver microsome after 3 hrs; type: ADME; conditions: liver microsomes, read-out: Stability
# [3] = Stability in mouse liver microsome after 3 hrs; type: ADME; conditions: liver microsomes, read-out: Stability
# Macaca fascicularis = species: Macaca fascicularis; test: Stability in cynomolgus monkey liver microsome after 3 hrs; conditions: liver microsomes
# [4] = Stability in dog liver microsome after 3 hrs; type: ADME, Canis lupus familiaris; conditions: liver microsomes, read-out: Stability
SMILES,Ki (Tryptase),other results
Cn1c(C(F)(F)c2nc3c(F)cc(F)cc3[nH]2)nc2ccc(C(N)=O)cc21,2700 nM,–
Cn1c(C(F)(F)c2nc3c(F)cc(F)cc3[nH]2)nc2ccc(C(=O)NCCOc3ccc(F)cc3)cc21,300 nM,remaining at 3 h [1]: 56%; remaining at 3 h [2]: < 10%; remaining at 3 h [3]: < 10%; remaining at 3 h (Macaca fascicularis): < 10%; remaining at 3 h [4]: < 10%
Cn1c(C(F)(F)c2nc3c(F)cc(F)cc3[nH]2)nc2ccc(C(=O)NC(O)COc3ccc(F)cc3)cc21 (stereo unspecified),24 nM,–
Cn1c(C(F)(F)c2nc3c(F)cc(F)cc3[nH]2)nc2ccc(C(=O)NCCO)cc21,7000 nM,–

# Now from value to compound, other results behind:
Ki (Tryptase),SMILES,other results
34 nM,Cn1c(C(F)(F)c2nc3c(F)cc(F)c(O)c3[nH]2)nc2ccc(C(=O)NCCOc3ccc(F)cc3)cc21,–
1400 nM,Cn1c(C(F)(F)c2nc3c(F)c(O)c(F)cc3[nH]2)nc2ccc(C(=O)NCCOc3ccc(F)cc3)cc21,–
